Laboratory results taken from the supplement of paper PMC10307832.

Experiments:
Test in all cases: relative viability (nuclei count vs DMSO), 5 days (fraction); higher = more cells survive
AZ628 + Vorinostat = compound: CC1=C(C=C(C=C1)NC(=O)C2=CC(=CC=C2)C(C)(C)C#N)NC3=CC4=C(C=C3)N=CN(C4=O)C [AZ628] + O=C(CCCCCCC(=O)Nc1ccccc1)NO [Vorinostat] (partner 1 µM)
How it was run: (§1)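 Cells from lung cancer lines were seeded into 1536-well plates and, one day later, dosed by pin tool. Treatments were either a single drug or a fixed dose of an anchor drug with five library-drug doses (not always all listed) in √10 steps. After 5 days, nuclei were stained in a one-step fixation (final 0.05% Triton X-100, 1% formaldehyde, 1 ug/ml Hoechst) and counted on 4× images, and relative viability is the treated-to-vehicle nuclei ratio, as the median of duplicate plates.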

AZ628 + Trametinib = compound: CC1=C(C=C(C=C1)NC(=O)C2=CC(=CC=C2)C(C)(C)C#N)NC3=CC4=C(C=C3)N=CN(C4=O)C [AZ628] + CC(=O)Nc1cccc(-n2c(=O)n(C3CC3)c(=O)c3c(Nc4ccc(I)cc4F)n(C)c(=O)c(C)c32)c1 [Trametinib] (partner 0.02 µM)
How it was run: as §1

QS11 + Alpelisib = compound: C1CC2=C(C1)C=C(C=C2)OC3=NC(=C4C(=N3)N(C=N4)CC5=CC=C(C=C5)C6=CC=CC=C6)N[C@@H](CC7=CC=CC=C7)CO [QS11] + Cc1nc(NC(=O)N2CCC[C@H]2C(N)=O)sc1-c1ccnc(C(C)(C)C(F)(F)F)c1 [Alpelisib] (partner 2 µM)
How it was run: as §1

Darinaparsin + Dasatinib = compound: C[As](C)SC[C@H](NC(=O)CC[C@H](N)C(=O)O)C(=O)NCC(=O)O [Darinaparsin] + Cc1nc(Nc2ncc(C(=O)Nc3c(C)cccc3Cl)s2)cc(N2CCN(CCO)CC2)n1 [Dasatinib] (partner 0.075 µM)
How it was run: as §1

Cell Line	relative viability (AZ628 + Vorinostat; first compound 0.08 µM)	relative viability (AZ628 + Vorinostat; first compound 0.253 µM)	relative viability (AZ628 + Vorinostat; first compound 0.8 µM)	relative viability (AZ628 + Vorinostat; first compound 2.53 µM)	relative viability (AZ628 + Vorinostat; first compound 8 µM)	relative viability (AZ628 + Trametinib; first compound 0.08 µM)	relative viability (AZ628 + Trametinib; first compound 0.253 µM)	relative viability (AZ628 + Trametinib; first compound 0.8 µM)	relative viability (AZ628 + Trametinib; first compound 2.53 µM)	relative viability (AZ628 + Trametinib; first compound 8 µM)	relative viability (QS11 + Alpelisib; first compound 0.08 µM)	relative viability (QS11 + Alpelisib; first compound 0.253 µM)	relative viability (QS11 + Alpelisib; first compound 0.8 µM)	relative viability (QS11 + Alpelisib; first compound 2.53 µM)	relative viability (QS11 + Alpelisib; first compound 8 µM)	relative viability (Darinaparsin + Dasatinib; first compound 0.08 µM)	relative viability (Darinaparsin + Dasatinib; first compound 0.8 µM)	relative viability (Darinaparsin + Dasatinib; first compound 2.53 µM)	relative viability (Darinaparsin + Dasatinib; first compound 8 µM)
HCC-44	1.16	1.17	1.15	1.02	0.491	0.909	0.837	0.566	0.804	0.519	0.837	0.755	0.659	0.728	0.476				
HCC-78	0.523	0.439	0.465	0.565	0.457	0.613	0.424	0.377	0.375	0.46	0.411	0.31	0.401	0.43	0.321	0.382	0.384	0.375	0.386
HCC-366	0.404	0.39	0.399	0.255	0.396	0.277	0.242	0.204	0.233	0.156	0.55	0.361		0.296	0.244	0.709	0.758	0.734	1.07
HCC-827	0.963	0.795	0.906	0.921	0.552	0.352	0.348	0.3	0.342	0.316	0.907	1.02	0.931	1.05	1.01	0.268	0.397	0.243	0.309
HOP-62	0.641	0.701	0.641	0.432	0.289	0.197	0.155	0.15	0.15	0.188	0.968	0.927	0.956	0.85	0.535	0.708	0.786	0.434	0.693
IA-LM	1.01	0.962	0.657	0.722	0.21						0.665	0.747	0.378	0.826	0.473				
LC-2-ad	0.78	0.865	0.796	0.74	0.656	0.731	0.669	0.529	0.601	0.427	0.93	0.853	0.698	1.08	0.779	0.683	0.628	0.454	0.466
LCLC-103H	0.727	0.804	0.776	0.712	0.728	0.58	0.586	0.657	0.565	0.584	1.07	0.979	0.797	0.938	0.974	0.577	0.449	0.409	0.533
LK-2	0.272	0.244	0.396	0.275	0.222	0.332	0.468	0.251	0.27	0.301	1.01	1.15	1.21	0.868	1.59	0.201		0.301	0.274
NCI-H522	0.924	0.891	0.95	0.82	0.695	0.768	0.745	0.678	0.732	0.584						0.853	0.902	0.804	0.918
NCI-H1299											1.09	1.1	1.02	0.962	1.05				
NCI-H1563											0.902	0.931	1.02	0.831	0.749	0.379	0.442	0.5	0.479
NCI-H1623																0.574	0.548	0.518	0.553
NCI-H1648	0.544	0.372	0.333	0.375	0.323	0.404	0.333	0.288	0.337	0.284									
NCI-H1650	0.733	0.763	0.582	0.505	0.562	0.502	0.541	0.329	0.327	0.497						0.397	0.36	0.343	0.297
NCI-H1703											0.322	0.409	0.32	0.331	0.446				
NCI-H1792						0.333	0.247	0.117	0.195	0.052		0.708	0.539	0.609	0.785	1.28	0.849	0.804	0.957
NCI-H2342	0.928	0.692	0.81	0.753	0.825	0.839	0.878	0.907	0.752	0.978						0.358	0.302	0.296	0.312
SW 900	0.622	0.463	0.573	0.426	0.534	0.506	0.663	0.568	0.555	0.309						0.512	0.454	0.654	0.514
